This is an account of results in patent publication US20110207729A1, “BICYCLIC ACYLGUANIDINE DERIVATIVE” (ASTELLAS PHARMA INC., priority 2007, published 2011).

Where a name gives a salt, the structure may show the parent alone.

This experiment has as its target T1, human 5-HT5A receptor (Homo sapiens, UniProt P47898).
T1 construct: expressed in transfected cells; membrane preparation
The experiment can be described thus: Test on a human 5-HT5A receptor binding inhibition ([3H]5-CT). The settings on record: membrane from HEK293 cells expressing human 5-HT5A receptor; Ki calculated from IC50 and Kd 4.95 nM. Here is the method: Acquisition of HEK293 cells for forced expressions of a human 5-HT5A receptor
The ORF (open reading frame; protein coding region) of a human 5-HT5A receptor (Genbank AF498985) was cloned from a human hippocampus cDNA library, and then inserted into a pCR2.1 vector (Invitrogen), and Escherichia coli containing the plasmid was cultured in a large amount. Next, the full-length cDNA sequence of the human 5-HT5A receptor was analyzed, and recombined into a pcDNA3.1 vector (Invitrogen) as an expression vector and cultured in a large amount. HEK293 established cells (ATCC) derived from the human fetal kidney were seeded, the expression plasmid (1 μg) obtained above were added thereto with LIPOFECTAMINE 2000 (Invitrogen; 2 μl), the gene was transfected into HEK293 cells, and the expression cells were screened with a drug-resistant marker, Geneticin (G418 sulfate 500 μg/ml; Kanto Chemical Co., Inc.). Thus prepared recombinant cells which express the gene were cultured in a medium containing D-MEM (Dulbecco's modified eagle medium, Sigma), 10% FCS (Fetal calf serum: fetal bovine serum), 1% Pc./Sm (Penicillin/Streptomycin, Invitrogen), and 500 μg/ml G418 for 3 days. These experimental operations follow an manual for gene operation experiment and an instruction appended in a reagent, and the like, such as a known method (Sambrook, J. et al, Molecular Cloning—A Laboratory Manual”, Cold Spring Harabor laboratory, NY, 1989).
(1) Preparation of a Membrane from HEK293 Cells for Forced Expressions of a Human 5-HT5A Receptor
HEK293 cells for forced expressions of a human 5-HT5A receptor were cultured in a F500 plate, and scraped with a scraper. After centrifugation, a precipitate was collected, and an incubation buffer (50 mM Tris (HCl) (pH 7.4), 10 mM MgSO4, and 0.5 mM EDTA (ethylenediamine tetraacetic acid)) were added thereto. After homogenization, it was further centrifuged, and the precipitate was added with the incubation buffer, followed by thoroughly suspending. This operation was repeated, and a protein concentration was measured, thereby completing the preparation of a membrane.
(2) Test on a Human 5-HT5A Receptor Binding Inhibition
A solution of a compound to be tested and 100 μM 5-CT (5-carboxamidetriptamine) in DMSO was added to a 96-well plate at 2 μl/well, and suspended in an incubation buffer, and a membrane from HEK293 cells for forced expressions of a human 5-HT5A receptor prepared at 200 μg/ml was added at 100 μl/well. After incubation at room temperature for 15 minutes, a [^3H]5-CT solution (2 nM [^3H]5-CT, incubation buffer) was added thereto at 100 μl/well.
Separately, 100 μl of the solution was distributed into a liquid scintillation vial, and 2 ml of Aquasol II (registered trademark) was added thereto, followed by stirring. Then, a radioactivity was measured by a liquid scintillation counter. It was incubated at 37° C. for 60 minutes. The reaction mixture was sucked into 96-well GF/C filter plate that had been pre-treated with 0.2% polyethyleneimine, and washed six times with an ice-cooled, 50 mM Tris (pH 7.5) buffer. The GF/C filter plate was dried.
Microscint TMPS (registered trademark) was added thereto at 40 μl/well. A radioactivity remaining on the GF/C filter plate was measured by a top counter.
The [^3H]5-CT binding inhibiting activity by the compound to be tested in each experiment was determined as an IC50 value with a radioactivity upon addition of DMSO alone being 0% inhibition, and a radioactivity upon addition of 1 μM 5-CT being 100% inhibition. Separately, a Ki value was calculated from the Kd value of the [^3H]5-CT determined from Scatchard analysis, by the following equation.
Ki=IC50(1+Concentration of ligands added/Kd(4.95 nM))

T1 sequence (P47898 whole entry): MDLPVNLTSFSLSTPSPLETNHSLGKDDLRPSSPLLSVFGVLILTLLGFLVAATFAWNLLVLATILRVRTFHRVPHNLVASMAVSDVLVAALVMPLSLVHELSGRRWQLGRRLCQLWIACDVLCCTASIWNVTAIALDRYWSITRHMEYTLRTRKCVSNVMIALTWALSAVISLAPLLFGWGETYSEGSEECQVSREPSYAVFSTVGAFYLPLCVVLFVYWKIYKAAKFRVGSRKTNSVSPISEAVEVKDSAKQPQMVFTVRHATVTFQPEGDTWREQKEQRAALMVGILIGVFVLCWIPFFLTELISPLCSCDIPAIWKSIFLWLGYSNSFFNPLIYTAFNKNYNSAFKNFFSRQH

Broadly, the Ki is the equilibrium dissociation constant of an inhibitor or competing ligand from its target. On to `COc1ccccc1C1=CC(C)(C)Oc2ccc(C(=O)N=C(N)N)cc21` [Example 1-01, N-(diaminomethylene)-4-(2-methoxyphenyl)-2,2-dimethyl-2H-chromene-6-carboxamide hydrochloride], for which the Ki was 30 to 300 nM. `COCCN/C(N)=N/C(=O)c1ccc2c(c1)C(c1c(F)cccc1F)=CCO2` [Example 1-03, N-{1-amino[(2-methoxyethyl)amino]methylene}-4-(2,6-difluorophenyl)-2H-chromene-6-carboxamide hydrochloride]: the Ki is 3 to 30 nM. With `CC1(C)C=C(c2ccccc2)c2cc(C(=O)N=C(N)N)ccc2O1` [Example 1-04] the figure was 30 to 300 nM; with `NC(N)=NC(=O)c1ccc2c(c1)C(c1ccccc1)=C(F)CO2` [Example 1-14], 0.97 nM.

`NC(N)=NC(=O)c1ccc2c(c1)C(c1ccccc1C(F)(F)F)=CCO2` [Example 1-15]: the Ki is 3 to 30 nM. As for `N#Cc1ccccc1C1=CCOc2ccc(C(=O)N=C(N)N)cc21` [Example 1-21], the Ki is 3 to 30 nM. For the compound `NC(N)=NC(=O)c1ccc2c(c1)C(c1ccccc1O)=CCO2` [Example 1-22], the Ki was 0.3 to 3 nM. For the compound `NC(N)=NC(=O)c1ccc2c(c1)C(c1cc(F)cc(F)c1)=CCO2` [Example 1-46], the Ki was 3 to 30 nM. For `N#Cc1cc(F)ccc1C1=CCOc2ccc(C(=O)N=C(N)N)cc21` [Example 1-48], the Ki is 3 to 30 nM. As to `N#Cc1cc(C2=CCOc3ccc(C(=O)N=C(N)N)cc32)ccc1F` [Example 1-49], the Ki is 30 to 300 nM. For the compound `COc1ccc(F)cc1C1=CCOc2ccc(C(=O)N=C(N)N)cc21` [Example 1-50], the Ki was 3 to 30 nM. Consider `NC(N)=NC(=O)c1ccc2c(c1)C(c1ccc(Cl)cc1Cl)=CCO2` [Example 1-51], for which the Ki was 0.3 to 3 nM. For `NC(N)=NC(=O)c1ccc2c(c1)C(c1cccc(C(F)(F)F)c1)=CCO2` [Example 1-52], the Ki is 3 to 30 nM. Consider `NC(N)=NC(=O)c1ccc2c(c1)C(c1cc(F)c(F)cc1F)=CCO2` [Example 1-53], for which the Ki was 3 to 30 nM. Consider `NC(N)=NC(=O)c1ccc2c(c1)C(c1ccc(Cl)cc1F)=CCO2` [Example 1-54], for which the Ki is 0.3 to 3 nM. Take `NC(N)=NC(=O)c1ccc2c(c1)C(c1ccc(F)cc1Cl)=CCO2` [Example 1-55]: the Ki is 0.3 to 3 nM. For `NC(N)=NC(=O)c1ccc2c(c1)C(c1cc(C(F)(F)F)ccc1F)=CCO2` [Example 1-65], the Ki is 3 to 30 nM. In the case of `Cn1cc(C2=CCOc3ccc(C(=O)N=C(N)N)cc32)cn1` [Example 1-66], the Ki was 30 to 300 nM. As to `CC1=C(c2c(F)cc(F)cc2F)c2cc(C(=O)N=C(N)N)ccc2OC1` [Example 1-67], the Ki was 0.3 to 3 nM. With `CC1C=C(c2c(F)cc(F)cc2F)c2cc(C(=O)N=C(N)N)ccc2O1` (stereo not drawn) [Example 1-71] the figure was 0.3 to 3 nM; with `CC1C=C(c2ccc(C#N)cc2)c2cc(C(=O)N=C(N)N)ccc2O1` (stereo not drawn) [Example 1-72], 3 to 30 nM.

Regarding `N/C(=N\C(=O)c1ccc2c(c1)C(c1c(F)cccc1F)=CCO2)NCC1CC1` [Example 1-76], the Ki was 3 to 30 nM. For `COc1cc(F)c(F)cc1C1=CCOc2ccc(C(=O)N=C(N)N)cc21` [Example 1-79], the Ki was 3 to 30 nM. For the compound `NC(N)=NC(=O)c1ccc2c(c1)C(c1ccc(F)c(Cl)c1)=CCO2` [Example 1-80], the Ki was 3 to 30 nM. `NC(N)=NC(=O)c1ccc2c(c1)C(c1cccc(Cl)c1F)=CCO2` [Example 1-81]: the inhibition constant (Ki) is 0.3 to 3 nM.

Consider `Cc1ccc(Cl)c(C2=CCOc3ccc(C(=O)N=C(N)N)cc32)c1F` [Example 1-82], for which the Ki was 0.3 to 3 nM. With `NC(N)=NC(=O)c1ccc2c(c1)C(c1ccc(C(F)(F)F)cc1C(F)(F)F)=CCO2` [Example 1-83], the Ki was 30 to 300 nM.

Take `NC(N)=NC(=O)c1cc(F)c2c(c1)C(c1c(F)cc(F)cc1F)=CCO2` [Example 1-85]: the Ki was 3 to 30 nM. With `COc1ccccc1C1=CCOc2c(F)cc(C(=O)N=C(N)N)cc21` [Example 1-86] the figure was 3 to 30 nM; with `N#Cc1ccc(C2=CCOc3c(F)cc(C(=O)N=C(N)N)cc32)cc1` [Example 1-87], 30 to 300 nM. With `Cc1ccc(C2=CCOc3ccc(C(=O)N=C(N)N)cc32)c(Cl)c1` [Example 1-91] the figure was 0.3 to 3 nM; with `Cc1cc(Cl)ccc1C1=CCOc2ccc(C(=O)N=C(N)N)cc21` [Example 1-92], 0.3 to 3 nM. As for `NC(N)=NC(=O)c1ccc2c(c1)C(c1c(F)cccc1Cl)=CCO2` [Example 1-96], the Ki was 0.3 to 3 nM. For `NC(N)=NC(=O)c1ccc2c(c1)C(c1cccc(F)c1Cl)=CCO2` [Example 1-102], the Ki is 0.3 to 3 nM.

Regarding `NC(N)=NC(=O)c1ccc2c(c1)C(c1cc(F)ccc1Cl)=CCO2` [Example 1-103], the Ki is 0.3 to 3 nM. In the case of `NC(N)=NC(=O)c1ccc2oc(=O)cc(-c3c(F)cc(F)cc3F)c2c1` [Example 1-104], the Ki was 30 to 300 nM. Take `CC1(C)C=C(c2ccc(F)cc2F)c2cc(C(=O)N=C(N)N)ccc2O1` [Example 1-105]: the Ki is 3 to 30 nM. As to `CC1(C)C=C(c2c(F)cccc2F)c2cc(C(=O)N=C(N)N)ccc2O1` [Example 1-109], the Ki is 3 to 30 nM.

For `CC1(C)C=C(c2ccc(F)cc2)c2cc(C(=O)N=C(N)N)ccc2O1` [Example 1-110], the Ki was 30 to 300 nM. With `COc1cc2c(cc1C(=O)N=C(N)N)C(c1c(F)cc(F)cc1F)=CCO2` [Example 1-118], the Ki was 0.3 to 3 nM. Turning to `CC1(C)C=C(c2ccc(F)c(F)c2F)c2cc(C(=O)N=C(N)N)ccc2O1` [Example 1-119], the inhibitory constant (Ki) was 30 to 300 nM. `CC1(C)C=C(c2cc(F)c(F)cc2F)c2cc(C(=O)N=C(N)N)ccc2O1` [Example 1-120]: the Ki was 30 to 300 nM.

For `NC(N)=NC(=O)c1ccc2c(c1)C(c1c(F)cc(F)cc1F)=CC1(CCCC1)O2` [Example 1-121], the inhibition constant Ki was 3 to 30 nM. On to `CC1C=C(c2c(F)cccc2F)c2cc(C(=O)N=C(N)N)ccc2O1` (stereo not drawn) [Example 1-126], for which the Ki is 3 to 30 nM. With `CC1C=C(c2cccnc2Cl)c2cc(C(=O)N=C(N)N)ccc2O1` (stereo not drawn) [Example 1-127] the figure was 30 to 300 nM; with `CC1C=C(c2cccnc2)c2cc(C(=O)N=C(N)N)ccc2O1` (stereo not drawn) [Example 1-128], 30 to 300 nM. As to `CC1C=C(c2ccncc2)c2cc(C(=O)N=C(N)N)ccc2O1` (stereo not drawn) [Example 1-133], the Ki was 30 to 300 nM. As for `CC1C=C(c2cccnc2F)c2cc(C(=O)N=C(N)N)ccc2O1` (stereo not drawn) [Example 1-134], the Ki is 30 to 300 nM.

In the case of `CC1C=C(c2ccc(F)c(F)c2)c2cc(C(=O)N=C(N)N)ccc2O1` (stereo not drawn) [Example 1-146], the Ki was 30 to 300 nM. On to `CC1C=C(c2ccc(Cl)nc2Cl)c2cc(C(=O)N=C(N)N)ccc2O1` (stereo not drawn) [Example 1-147], for which the Ki was 30 to 300 nM. As to `COc1cccc(C#N)c1C1=CC(C)Oc2ccc(C(=O)N=C(N)N)cc21` (stereo not drawn) [Example 1-165], the Ki is 30 to 300 nM. In the case of `CC1C=C(c2cccs2)c2cc(C(=O)N=C(N)N)ccc2O1` (stereo not drawn) [Example 1-166], the Ki was 3 to 30 nM. With `CC1C=C(c2ccsc2)c2cc(C(=O)N=C(N)N)ccc2O1` (stereo not drawn) [Example 1-167] the figure was 3 to 30 nM; with `NC(N)=NC(=O)c1ccc2c(c1)C(c1ccoc1)=CCC2` [Example 2-01, N-(diaminomethylene)-8-(3-furyl)-5,6-dihydronaphthalene-2-carboxamide methane sulfonate], 3 to 30 nM; with `COc1cccc(C2=CCCc3ccc(C(=O)N=C(N)N)cc32)c1` [Example 2-05], 3 to 30 nM. Take `NC(N)=NC(=O)c1ccc2c(c1)C(c1ccc(Oc3ccccc3)cc1)=CCC2` [Example 2-07]: the Ki is 30 to 300 nM. Turning to `NC(N)=NC(=O)c1ccc2c(c1)C(c1cccc(F)c1)=CCC2` [Example 2-08], the Ki is 3 to 30 nM.
